Reference: patent publication US6855308B2, “PACAP compositions and methods for tumor imaging and therapy” (Thomas Jefferson University, priority 2001, dated 2005)
“Also recorded” adds a separate entry of the source. Ends that are not written are not given here. * marks the point of attachment. DTPA = O=C(O)CN(CCN(CC(=O)O)CC(=O)O)CCN(CC(=O)O)CC(=O)*

Tests used:
[1] = tested on: breast tumors; experiment: tumor uptake in tumor-bearing mice; settings: 24 hr post-injection
Description: (§1) Approximately 5×10^6 viable cells from either tumor cell line are implanted in the right thigh of each mouse, and tumors are allowed to form. […] Animals are sacrificed at 15 min, 1 hr, 2 hr, 4 hr and 24 hr post-injection, and % of ID/g tissue is determined in all tissues. A control group of tumor-bearing mice is injected with PACAP27 mono-iodinated with ^125I. […] All animals are imaged using a GE STARCAM gamma camera equipped with a dedicated computer and a low energy parallel hole collimator.
(§2) The co-injected ^99mTc-TP 3475 and ^111In-DTPA-D-Phe^1-Octreotide in the mouse tissues were counted by using the characteristic energy windows for their respective radionuclides (±15 or 20%); e.g., 140 KeV for ^99mTc, and 173 KeV and 247 KeV for ^111In. The ^111In counts in the tissues were again determined when ^99mTc was completely decayed (e.g., 10-12 half-lives).

[2] = assay type: physicochemical
Description: For the metallization reaction, the vial contents were allowed to come to ambient temperature, and 10-40 mCi ^99mTc in 200 μl 0.9% NaCl was injected into the vial. The mixture was incubated at 100° C. for 30 min, and the pH of the reaction mixture was raised to 6-6.5 by addition of 1 ml 0.1 M Na2HPO4. One-hundred twenty-five mg of Na-ascorbate was added as a stabilizing agent. […] The yields at 22° C. are quantitative as determined by HPLC, producing a single peak at Rt. 12.5 min.

[3] = parameters: species or system Sprague-Dawley rats; settings: rat, in vivo, iv
Description: The blood clearance of ^99mTc-TP 3475 was studied in Sprague-Dawley rats as follows. Three Sprague Dawley rats, each weighing approximately 250 grams, were injected through one lateral tail vein with one mCi of ^99mTc-TP 3475, and serial blood samples were drawn in triplicate through the other lateral tail vein at 1, 5, 10, 15, and 30 minutes post-injection, and at 1, 2, 4, 6, 18 and 24 hours post injection. The blood samples were weighed, and radioactivity was counted against a standard ^99mTc solution prepared at the time of injection using standard scintillation counting techniques. The % ID/g plotted as a function of time.

[4] = tested on: T47D xenografts; experiment: receptor blocking study with PACAP in tumor-bearing mice; assay type: in vivo; settings: PACAP pre-injected; nude mice with T47D xenografts
Description: In order to determine receptor specificity of […] in human breast tumors, receptor blocking studies with PACAP were performed. In nude mice with T47D xenografts, ^99mTc-TP 3475 tumor uptake was reduced by approximately 50% when PACAP was pre-injected.

[5] = in vivo; settings: nude, mouse, iv, total radioactivity
Description: as §1, §2

[6] = tested on: primary breast cancers; settings: cited from earlier work
[7] = tested on: internal anal sphincter (IAS) smooth muscle; experiment: basal tension of opossum internal anal sphincter (IAS) smooth muscle; parameters: species or system opossum (Didelphis virginiana); settings: 10^−5 M concentration
Description: PACAP27 is known to cause a concentration-dependent fall in the basal tension of IAS, by the assay described in Rattan S et al., J. Pharmcol. Exper. Thera. 263: 722-728, 1997, the entire disclosure of which is herein incorporated by reference. This IAS assay was performed with increasing concentrations of TP 3475 until a maximum fall is reached, essentially as described below. PACAP27 was used as a control.
[…]. The large blood vessels and extraneous tissues including the external […] were removed, and the anal canal was opened and pinned flat with the mucosal side up on a dissecting tray containing oxygenated Krebs' solution (NaCl, 118.07; KCl, 4.69; CaCl2, 2.52; MgS04, 1.16; NaH2PO4, 1.01; NaHC03, 25; and glucose, 11.10). The mucosa was removed, and internal anal sphincter circular smooth muscle strips (approximately 2 mm×1 cm) were prepared from the lowermost part of the anal canal.
Measurement of isometric tension—The IAS smooth muscle strips were transferred to temperature-controlled 2 ml “muscle baths” containing Krebs' solution, bubbled continuously with a mixture of 95% O2-5% CO2. […] Isometric tensions were recorded on a Beckman Dynograph recorder (Beckman Instruments, Schiller Park, Ill.). […] Both optimal length and base-line were determined as described in Rattan S et al., 1997, supra.

[8] = tested on: normal lung membrane; settings: cited from earlier work
[9] = tested on: PACAP, VIP-R1 and VIP-R2 receptors; settings: cited from earlier work
[10] = tested on: adenylate cyclase; settings: pituitary cells; cited from earlier work
[11] = reduced from 100 for PACAP27; cited from earlier work

Which tumor uptake [1] does the source give for `[C-]#[N+]CC(C)(C)OC.[C-]#[N+]CC(C)(C)OC.[C-]#[N+]CC(C)(C)OC.[C-]#[N+]CC(C)(C)OC.[C-]#[N+]CC(C)(C)OC.[C-]#[N+]CC(C)(C)OC.[Tc]` [^99mTc-Sesta-MIBI] here?
Its tumor uptake is 0.18±0.0 % ID/g.

With `CC[C@H](C)[C@H](NC(=O)CNC(=O)[C@H](CC(=O)O)NC(=O)[C@H](CO)NC(=O)[C@@H](N)Cc1c[nH]cn1)C(=O)N[C@@H](Cc1ccccc1)C(=O)N[C@H](C(=O)N[C@@H](CC(=O)O)C(=O)N[C@@H](CO)C(=O)N[C@@H](Cc1ccc(O)cc1)C(=O)N[C@@H](CO)C(=O)N[C@@H](CCCNC(=N)N)C(=O)N[C@@H](Cc1ccc(O)cc1)C(=O)N[C@@H](CCCNC(=N)N)C(=O)N[C@@H](CCCCN)C(=O)N[C@@H](CCC(N)=O)C(=O)N[C@@H](CCSC)C(=O)N[C@@H](C)C(=O)N[C@H](C(=O)N[C@@H](CCCCN)C(=O)N[C@@H](CCCCN)C(=O)N[C@@H](Cc1ccc(O)cc1)C(=O)N[C@@H](CC(C)C)C(=O)N[C@@H](C)C(=O)N[C@@H](C)C(=O)N[C@H](C(=O)N[C@@H](CC(C)C)C(=O)NCCCC(=O)NCC(=O)N[C@H](C)C(=O)NCC(=O)NCC(=O)O)C(C)C)C(C)C)[C@@H](C)O` [^99mTc-TP 3475, metal not drawn] as the compound, how does the stability [2] read?
The stability was “stable for 24 hr”.

What about the “blood clearance α-t½” value ([3]; Sprague-Dawley) of the same compound?
The value was “approximately 6 min”.

And the “blood clearance β-t½” value ([3]; Sprague-Dawley)?
The value was “approximately 90 min”.

And the “time in which 75% of the radioactivity is cleared from the circulation” value [3]?
Its value is “about 12 minutes”.

And the “reduction of tumor uptake” value [4]?
Its value is “approximately 50%”.

And the tissue uptake at 24 h [5]?
The tissue uptake at 24 h was about 0.2 %ID/g.

Which results are given for `C[C@@H](O)[C@@H]1NC(=O)[C@H](CCCCN)NC(=O)[C@@H](Cc2c[nH]c3ccccc23)NC(=O)[C@H](Cc2ccccc2)NC(=O)[C@@H](NC(=O)[C@@H](Cc2ccccc2)NC(=O)CN(CCN(CCN(CC(=O)O)CC(=O)O)CC(=O)O)CC(=O)O)CSSC[C@@H](C(=O)N[C@H](CO)[C@@H](C)O)NC1=O` [^111In-DTPA-D-Phe^1-Octreotide, metal not drawn]?
positive scintigraphy ([6]; 52 primary breast cancers): 75%; patients in whom imaging of axillae detected non-palpable, cancer-containing lymph nodes ([6]; patients with histologically-proven metastases): 4 of 13; tissue uptake at 24 h [5]: 0.09 ± 0.01 %ID/g

Which results are given for HSDGIFTDSYSRYRKQMAVKKYLAAVL [PACAP27]?
% fall in IAS tension [7]: equivalent fall in IAS tension; also recorded: equal; IC50 [8]: ~1.5 nM; receptor binding affinity [9]: binds with high affinity to PACAP, VIP-R1 and VIP-R2 receptors; potency in stimulating adenylate cyclase relative to VIP28 [10]: ten times more potent

For “PACAP27 linked to DTPA at its N-terminus: PACAP27 linked to DTPA at its N-terminus (Reubi et al. 1997) ({DTPA}-HSDGIFTDSYSRYRKQMAVKKYLAAVL; ends and bridges not checked; UniProt P18509 132-158, looked up)”, which biological activity [11] is on record?
Its biological activity is under 0.01.

For “TP 3475: PACAP27 linked via a C-terminal Aba spacer to a Gly-(D)Ala-Gly-Gly chelating agent; SEQ ID NO: 5 (HSDGIFTDSYSRYRKQMAVKKYLAAVLXGAGG; C-terminal Aba spacer, Gly-(D)Ala-Gly-Gly chelator; PACAP analog TP 3475)”, which “% fall in IAS tension” value [7] is on record?
Its value is “equivalent fall in IAS tension; also recorded: equal”.

What does the source list for “VIP28: 28-amino acid vasoactive intestinal peptide”?
IC50 [8]: ~15 nM; receptor binding affinity [9]: binds with high affinity only to VIP-R1 and VIP-R2 receptors
